How the values were obtained:
[1] = Psoriasis animal model, weight change; type: in vivo, BALB/c mice; details: topical treatment, FIG. 16
Description: (§1) In order to confirm the psoriasis treatment effect by Compound 8 of the present invention, dorsal hair of 8-week-old BALB/c mice (female) was removed using hair removal cream (Veet®, Oxy Reckitt Benckiser, Cedex, France), and subsequently imiquimod 5% cream (Aldara®; 3M Pharmaceuticals, UK; 62.5 mg) was applied on the back and both ears of the mice twice in the morning and in the afternoon (Sensitization; Day 0). Then, after a barrier recovery period of 2 days, imiquimod 5% cream (62.5 mg/day) was applied repeatedly for 7 days (Induction stage; Day 2 -Day 8), thereby inducing the psoriasis animal model.
(§2) After inducing the psoriasis animal model, Compound 8 of the present invention dissolved in ethanol (0.5%) and cream containing Compound 8 of the present invention (The same composition as that of the cosmetic composition of Example 14 except that it contained 0.5% by weight of Compound 8) were applied on the back once in the morning for 5 days (Treatment Stage; Day 8-Day 12). An untreated control group and a disease control group (vehicle) were treated with cream not containing Compound 8 of the present invention (cosmetic composition of Comparative Example 2) and ethanol, and during the treatment period, imiquimod 5% cream was applied thereon every other day, thereby maintaining psoriasis.

IL-24 (interleukin-24) = assay: Cytokine gene expression, IL-24, TNFα/IFN-γ induced inflammatory condition; type: cell-based, human; details: FIG. 8
[2] = test system: psoriasis animal model induced by imiquimod 5% cream; assay: Psoriasis animal model, H&E staining of back tissue; type: in vivo, BALB/c mice; details: FIG. 15
Description: as §1
as §2, with “psoriasis. […]” for “psoriasis.”

[3] = test system: IL-36G (interleukin 36, gamma); assay: RT-PCR of psoriasis-related gene IL-36G; type: cell-based, human; details: HEKa cells, 20 uM, FIGS. 2 and 3
Description: (§3) A psoriasis-related genes were selected from the cDNA array result in which Compound 8 of the present invention was treated in HaCaT cells. In order to analyze whether Compound 8 has an effect on psoriasis alleviation, RT-PCR analysis for IL-36′ (interleukin 36 gamma), KLK7 (Kallikrein-related peptidase 7), OASL (2′-5′-Oligoadenylate Synthetase Like) and ALOX12B (Arachidonate 12-lipoxygenase, 12R type) which are very closely related to psoriasis was carried out. Further, KRT16 (Keratin 16), KRT6 (Keratin 6) and KRT1 (Keratin 1), known as psoriasis-related proliferation, differentiation markers were confirmed by a western blot analysis. As the specific experimental method, HEKa cells (Human Epidermal keratinocytes, adult), human-derived epidermal keratinocytes were seeded on a 24 well plate at a density of 1×10^5 cells, and cultured in an EpiLife medium (1× Human keratinocyte Growth supplement, 1× antibiotics) in an incubator under 37° C. and 5% CO2 for 24 hours. […]

[4] = test system: psoriasis animal model induced by imiquimod 5% cream; assay: Psoriasis animal model, ear thickness; type: in vivo, BALB/c mice; details: ears treated together with imiquimod; digital caliper; FIG. 18
Description: as §1
There was no treatment on the left ear of the untreated control group, and the right ear was treated with cream not containing imiquimod and ethanol. The left ear of the experimental groups was treated only with imiquimod and ethanol, whereas the right ear of the experimental groups was treated with either Compound 8 or Compound 8 cream of the present invention together with imiquimod, and such method is specifically shown in FIG. 12.
When the animals were slaughtered, the thickness of the central part of both ears was measured using a digital caliper (Digital caliper, Marathon Inc. Belleville, ON, Canada).

[5] = test system: psoriasis animal model induced by imiquimod 5% cream; assay: Psoriasis animal model (imiquimod), clinical findings: erythema; type: in vivo, BALB/c mice
Description: as §1
as §2, with “[…]; […]).” for “except that it contained 0.5% by weight of Compound 8) were applied on the back once in the morning for 5 days (Treatment Stage; Day 8-Day 12).”

IL-6 (interleukin 6) = assay: ELISA for IL-6 in HEKa cells under inflammatory condition; type: cell-based, human; details: TNF-α/IFN-γ or IL-17A/IL-22 induced inflammatory condition, 10·M, FIGS. 5 to 7
Description: In order to analyze whether treatment of Compound 8 has an atopy alleviation effect, ELISA (enzyme-linked immunosorbent assay) for IL-6 (interleukin 6) and IL-8 (interleukin 8) which are very closely related to atopic inflammation and psoriasis was performed.
As the specific experimental method, HEKa cells (Human Epidermal keratinocytes, adult), human-derived epidermal keratinocytes were seeded on a 24 well plate at a density of 1×10^5 cells, and cultured in an EpiLife medium (1× Human keratinocyte Growth supplement, 1× antibiotics) in an incubator under 37° C. and 5% CO2 for 24 hours.
After culturing, while an inflammatory condition was induced by treatment with either TNF-α (Tumor necrosis factor-α)/IFN-γ (interferon-γ) or IL-17A (interleukin-17A)/IL-22 (interleukin-22) in each well, further treatment was performed with Compound 8 of the present invention at a concentration of 10·M, and then the cells were incubated for a certain period. After completing culturing, media were collected, and then ELISA for each IL-6 and IL-8 was carried out.

[6] = test system: Tbet (T-box transcription factor); assay: Expression of psoriasis-related transcription factor Tbet in induced inflammatory condition; type: cell-based, human; details: IL-17A/TNFα- or IL-17A/IFNγ-induced inflammatory condition
Description: [The source words this procedure for another target and says it was used here with some conditions changed.] as §3

Structure (SMILES): CCCCCCCCCCCCCCCC(=O)NCCCC[C@H](NC(=O)[C@H](CCCCN(CC(=O)O)CC(=O)O)N(CC(=O)O)CC(=O)O)C(=O)O [Compound 8]
- weight change after treatment [1]: almost similar to those of the control group
- expression level of IL-24 (IL-24 (interleukin-24)): reduced
- thickness of stratum corneum [2]: significantly reduced
- expression level of IL-36G gene [3]: significantly decreased
- thickness of the right (treated) ear compared with the left ear treated with 5% imiquimod and ethanol [4]: significant thickness reduction
- erythema on day 14, reduction level ([5]; day 14 after treatment, FIG. 14): very remarkable
- erythema increased by imiquimod ([5]; topical on back, 0.5% in ethanol or 0.5% cream, treatment for 6 days, FIG. 13): significantly reduced
- secretion of IL-6 (IL-6 (interleukin 6)): significantly reduced
- expression level of Tbet [6]: reduced
